Target: T1, Human Kv7.2/7.3 heteromeric channels (Homo sapiens, UniProt O43525+O43526)
T1 construct: expressed in transfected cells
Assay: Kv7.2/7.3 patch clamp assay
Assay type: cell-based
Conditions: 10 µM concentration (N=3)
Protocol: Human Kv7.2/7.3 heteromeric channels were stably expressed in a HEK293 cell line. Cells were plated onto 13 mm plastic dishes and incubated for 1-3 days in a 5% CO2 incubator for conventional whole-cell patch clamp experiments. Electrophysiological recordings were made using an automated patch clamp platform (QPatch, Sophion Biosciences). Internal (pipette) solution contained (in mM): K-Aspartate (130), KCl (15), MgCl2 (5.5), Na2ATP (5), K2PCr (5), EGTA (20), HEPES (10), pH 7.25 with KOH, was used to study Kv7.2/7.3 currents. Cells were superfused at room temperature with a standard physiological solution containing (mM): NaCl (140), KCl (4), CaCl2 (2), MgCl2 (1), glucose (10), HEPES (10), pH 7.35 with NaOH.
Patch pipettes were pulled from borosilicate glass and had tip resistances of 2-4 MW when filled with the above solution. Capacitative transients were compensated electronically from the recordings. However, the voltage drop across the series resistance and the liquid junction potential were not compensated. The series resistance was generally less than 10 MG (n=5 cells), with a mean cell capacity of 25±5 pF.
In some cases, manual patch clamp was carried out using an Axon 200B amplifier (Axon Instruments). The software program pClamp (version 10) from Axon Instruments was used to stimulate and record electrical activity. […]

Structure (SMILES)	effect on Kv7.2/7.3-mediated currents
CC[C@@]1(C)NC(=O)N(c2cnc(Oc3ccc(C)c(OC(F)(F)F)c3)nc2)C1=O [Compound 2, (5R)-5-ethyl-5-methyl-3-[2-({4-methyl-3-[(trifluoromethyl)oxy]phenyl}oxy)-5-pyrimidinyl]-2,4-imidazolidinedione]	Neither compound was found to have a significant effect
Cc1ccc(Oc2ncc(N3C(=O)NC(C)(C)C3=O)cn2)c2c1OCC21CC1 [Compound 1, 5,5-dimethyl-3-[2-(7-methylspiro[2H-benzofuran-3,1′-cyclopropane]-4-yl)oxypyrimidin-5-yl]imidazolidine-2,4-dione]	Neither compound was found to have a significant effect
